# Reference: patent publication US20250277247A1, “NUCLEIC ACID AMPLIFICATIONS” (priority 2012, published 2025)
# Columns and labels:
# [1] = system: purified influenza A viral RNA; assay type: biochemical; details: 14 mM EGTA, 15 mM MgSO4, 100 mM Tris-Cl; about 20 minutes at room temperature, then 56° C., monitored 10 minutes; 0 or 100 copies
# [2] = system: genomic DNA from Mycobacterium bovis BCG; assay type: biochemical, Mycobacterium bovis BCG (ATCC strain 190115); details: 15 mM EGTA, 15 mM MgSO4; 15 minutes at room temperature, then 56° C., monitored 40 minutes; 20 or 200 copies vs no template
# [3] = cited from earlier work
# [4] = NEAR reaction mixture, buffer pH 8 at room temperature, temperature increased to 56° C.; cited from earlier work
smiles,measurement,setting,value
"O=C(O)CN(CCOCCOCCN(CC(=O)O)CC(=O)O)CC(=O)O [EGTA, Ethylene bis(oxyethylenenitrilo) tetraacetic acid]",Amplification (real-time fluorescence),[1],Amplification was observed only in the reactions that included both EGTA and 100 copies of viral RNA
same,Amplification (real-time fluorescence),[2],significant amplification was observed
"O=S(=O)(O)CCN1CCN(CCS(=O)(=O)O)CC1 [PIPES, piperazine-N,N′-bis(2-ethanesulfonic acid)]",pKa (20° C.),[3]; 20° C.,6.80
same,pKa (25° C.),[3]; 25° C.,6.76
same,pKa (37° C.),[3]; 37° C.,6.66
"NC(CO)(CO)CO [Tris, tris(hydroxymethyl)aminomethane]",pH of the temperature sensitive buffer,[4],< 7.4
